The data set deals with cancer cells. The data set is described as follows: MTT cytotoxic assay of esterification products (Cytotoxicity activity). Format: cell-based, human. The note with it: MTT cytotoxic assay, isolated esterification products of E4A. The text has this:
The peaks, fractions and compounds are selected according to the activities of times studies and the changes of peaks. Selecting the HPLC fractions for isolation is according to the cytotoxic activity of the reaction product obtained at a specific time. The compounds having strong to weak activities are selected and isolated. Selecting the HPLC fractions for isolation may be according to the cytotoxic activity of times studies and the change of peaks. The anti-cancer activities are the MTT studies of bone (U2OS), lung (H460), bladder (HTB-9), ovary (ES2), colon (HCT116), pancreas (Capan), ovary(OVCAR3), prostate (DU145), skin (SK-Mel-5), mouth (KB), kidney (A498), breast (MCF-7), liver (HepG2), brain (T98G), leukemia (K562), cervix (HeLa).
Esterification of compound (A), (B), (C), (D1), (D2), (E), (F), (G), (H1), (H2), E4A, E4A2Y, (P1), P(2), terpene, isoprene, triterpenes, hydroxylated triterpenes, with acyl halide, wherein the halide comprise chloride, bromide, fluoride and iodide, wherein the acyl halide comprise acyl chloride, wherein acyl chloride comprise tigloyl chloride, angeloyl chloride, acetyl chloride, crotonoyl chloride, 3,3-Dimethylacryloyl chloride, senecioyl chloride, cinnamoyl chloride, pentenoyl chloride, hexanoyl chloride, benzoyl chloride, ethylbutyryl chloride, propionyl chloride, 2-propenoyl chloride, isobutyryl chloride, butyryl chloride, (2E)-2-pentenoyl chloride, 4-Pentenoyl chloride, 5-hexenoyl chloride, heptanoyl chloride, octanoyl chloride, nonanoyl chloride, decanoyl chloride, Lauroyl chloride, myristoyl chloride, oleoyl chloride. The compounds vary in composition when the time or temperature of the reaction is changed. The peaks, fractions and compounds are selected according to the activities of times studies and the changes of peaks. The compounds having strong to weak activities are selected and isolated. The anti-cancer activities (Cytotoxic Assay) are the MTT studies of bone (U2OS), lung (H460), bladder(HTB-9), ovary (ES2), colon (HCT116), pancreas (Capan), ovary(OVCAR3), prostate (DU145), skin (SK-Mel-5), mouth (KB), kidney (A498), breast (MCF-7), liver (HepG2), brain (T98G), leukemia (K562), cervix (HeLa). The active esterification products are purified with HPLC. The reaction product of mixtures and individual compounds are tested with MTT Cytotoxic Assay. Details of method are in Experiment 3 of the present application. A second esterification of compound can be selected from the above experiment results to produce new active compounds. A partial esterification compound is selected from the above experiments to perform a second or repeated with a third esterification with different acyl chloride in order to produce new active compounds with the experiments in the present application.
Method: 40 mg of triterpene core (fraction IV) was dissolved in 1 ml pyridine in a 50 ml tube. Reaction is started by adding 0.2 ml of acyl chloride (Tigloyl chloride, angeloyl chloride, Acetyl chloride, Crotonoyl chloride, 3,3-Dimethylacryloyl chloride(senecioyl chloride), Cinnamoyl chloride, Pentenoyl chloride, Hexanoyl chloride, benzoyl chloride or Ethylbutyryl chloride). The mixture is stirred for 5 sec, 1 min, 2 min, 5 min, 10 min, 30 min, 1 hr, 2 hr, 18 hr, 2 days or 3 days at 0° C., 25° C. or 75° C. temperature. At the end of reaction, 5 ml of 2N HCl or 1 M NaHCO3 is added to the reaction mixture. The solution is then extracted 3 times with 10 ml of ethyl acetate which is then evaporated under vacuum and at 45C and lyophilization. The reaction product is dissolved in 80% acetonitrile - 0.005% Trifluoroacetic acid or DMSO; and was separated with HPLC. Selecting the HPLC fractions for isolation is according to the cytotoxic activity of the reaction product obtained at a specific reaction time. The active esterification products are purified with HPLC. The reaction product of mixtures and individual compounds are tested with MTT cytotoxic assay. Structures are determined with NMR. […]
A general note: Tetrazolium assays rely on reduction of a dye to a coloured formazan, in cell work by metabolically active cells.

Consider `C=CCCC(=O)OCC1(C)C(O)CCC2(C)C1CCC1(C)C2CC=C2C3CC(C)(C)C(OC(=O)CCC=C)C(O)C3(COC(=O)CCC=C)C(O)CC21C` (centres unmarked) [Compound C4], for which the Cytotoxicity activity result is on record as “moderate”. As for `C=CCCC(=O)OCC1(C)C(O)CCC2(C)C1CCC1(C)C2CC=C2C3CC(C)(C)C(O)C(OC(=O)CCC=C)C3(COC(=O)CCC=C)C(O)CC21C` (centres unmarked) [Compound C5], the entry is “moderate”. As for `C=CCCC(=O)OCC1(C)C(OC(=O)CCC=C)CCC2(C)C1CCC1(C)C2CC=C2C3CC(C)(C)C(O)C(O)C3(COC(=O)CCC=C)C(O)CC21C` (centres unmarked) [Compound C6], the entry is “moderate”; as for `C=CCCC(=O)OCC1(C)C(O)CCC2(C)C1CCC1(C)C2CC=C2C3CC(C)(C)C(O)C(O)C3(COC(=O)CCC=C)C(OC(=O)CCC=C)CC21C` (centres unmarked) [Compound C7], “moderate”. For the molecule `C=CCCC(=O)OCC1(C)C(O)CCC2(C)C1CCC1(C)C2CC=C2C3CC(C)(C)C(OC(=O)CCC=C)C(OC(=O)CCC=C)C3(COC(=O)CCC=C)C(O)CC21C` (centres unmarked) [Compound C8], the Cytotoxicity activity result was “weak”. Take `C=CCCC(=O)OCC1(C)C(OC(=O)CCC=C)CCC2(C)C1CCC1(C)C2CC=C2C3CC(C)(C)C(O)C(OC(=O)CCC=C)C3(COC(=O)CCC=C)C(O)CC21C` (centres unmarked) [Compound C9]: the Cytotoxicity activity entry is given as “weak”. The result for `C=CCCC(=O)OCC1(C)C(OC(=O)CCC=C)CCC2(C)C1CCC1(C)C2CC=C2C3CC(C)(C)C(O)C(O)C3(COC(=O)CCC=C)C(OC(=O)CCC=C)CC21C` (centres unmarked) [Compound C10] reads “weak”; that for `C=CCCC(=O)OCC1(C)C(OC(=O)CCC=C)CCC2(C)C1CCC1(C)C2CC=C2C3CC(C)(C)C(OC(=O)CCC=C)C(O)C3(COC(=O)CCC=C)C(O)CC21C` (centres unmarked) [Compound C11], “weak”; that for `C=CCCC(=O)OCC1(C)C(O)CCC2(C)C1CCC1(C)C2CC=C2C3CC(C)(C)C(O)C(OC(=O)CCC=C)C3(COC(=O)CCC=C)C(OC(=O)CCC=C)CC21C` (centres unmarked) [Compound C12], “weak”. `C=CCCC(=O)OCC1(C)C(O)CCC2(C)C1CCC1(C)C2CC=C2C3CC(C)(C)C(OC(=O)CCC=C)C(O)C3(COC(=O)CCC=C)C(OC(=O)CCC=C)CC21C` (centres unmarked) [Compound C13]: the Cytotoxicity activity result is listed as “weak”. The result for `C=CCCC(=O)OCC1(C)C(OC(=O)CCC=C)CCC2(C)C1CCC1(C)C2CC=C2C3CC(C)(C)C(O)C(OC(=O)CCC=C)C3(COC(=O)CCC=C)C(O)CC21C` (centres unmarked) [Compound C14] reads “weak”; that for `C=CCCC(=O)OCC1(C)C(OC(=O)CCC=C)CCC2(C)C1CCC1(C)C2CC=C2C3CC(C)(C)C(OC(=O)CCC=C)C(OC(=O)CCC=C)C3(COC(=O)CCC=C)C(O)CC21C` (centres unmarked) [Compound C15], “weak”; that for `C=CCCC(=O)OCC1(C)C(O)CCC2(C)C1CCC1(C)C2CC=C2C3CC(C)(C)C(OC(=O)CCC=C)C(OC(=O)CCC=C)C3(COC(=O)CCC=C)C(OC(=O)CCC=C)CC21C` (centres unmarked) [Compound C16], “weak”. For the molecule `C=CCCC(=O)OCC1(C)C(OC(=O)CCC=C)CCC2(C)C1CCC1(C)C2CC=C2C3CC(C)(C)C(OC(=O)CCC=C)C(O)C3(COC(=O)CCC=C)C(OC(=O)CCC=C)CC21C` (centres unmarked) [Compound C17], the Cytotoxicity activity entry is reported as “weak”. As for `C=CCCC(=O)OCC1(C)C(OC(=O)CCC=C)CCC2(C)C1CCC1(C)C2CC=C2C3CC(C)(C)C(O)C(OC(=O)CCC=C)C3(COC(=O)CCC=C)C(OC(=O)CCC=C)CC21C` (centres unmarked) [Compound C18], the Cytotoxicity activity entry is listed as “weak”. For `C=CCCC(=O)OCC1(C)C(OC(=O)CCC=C)CCC2(C)C1CCC1(C)C2CC=C2C3CC(C)(C)C(OC(=O)CCC=C)C(OC(=O)CCC=C)C3(COC(=O)CCC=C)C(OC(=O)CCC=C)CC21C` (centres unmarked) [Compound C19], the Cytotoxicity activity result is on record as “none”.

Turning to `C=CCCC(=O)OCC12C(O)CC3(C)C(=CCC4C5(C)CCC(O)C(C)(CO)C5CCC43C)C1CC(C)(C)C(OC(=O)CCC=C)C2OC(=O)CCC=C` (centres unmarked) [Compound C20], the Cytotoxicity activity entry was “moderate”. Consider `C=CCCC(=O)OCC1(C)C(O)CCC2(C)C1CCC1(C)C2CC=C2C3CC(C)(C)C(OC(=O)CCC=C)C(OC(=O)CCC=C)C3(CO)C(O)CC21C` (centres unmarked) [Compound C21], for which the Cytotoxicity activity result is reported as “moderate”. The result for `C=CCCC(=O)OC1C(OC(=O)CCC=C)C2(CO)C(OC(=O)CCC=C)CC3(C)C(=CCC4C5(C)CCC(O)C(C)(CO)C5CCC43C)C2CC1(C)C` (centres unmarked) [Compound C22] reads “moderate”; that for `C=CCCC(=O)OC1C(OC(=O)CCC=C)C2(CO)C(O)CC3(C)C(=CCC4C5(C)CCC(OC(=O)CCC=C)C(C)(CO)C5CCC43C)C2CC1(C)C` (centres unmarked) [Compound C23], “moderate”.

Turning to `CCCCCC(=O)OC1C(OC(=O)CCCCC)C2(CO)C(OC(=O)CCCCC)CC3(C)C(=CCC4C5(C)CCC(O)C(C)(CO)C5CCC43C)C2CC1(C)C` (centres unmarked) [Compound D22], the Cytotoxicity activity result was “moderate”. As for `CCCCCC(=O)OC1C(OC(=O)CCCCC)C2(CO)C(O)CC3(C)C(=CCC4C5(C)CCC(OC(=O)CCCCC)C(C)(CO)C5CCC43C)C2CC1(C)C` (centres unmarked) [Compound D23], the Cytotoxicity activity result is given as “moderate”. As for `CCCCCC(=O)OC1C(OC(=O)CCCCC)C2(CO)C(O)CC3(C)C(=CCC4C5(C)CCC(O)C(C)(CO)C5CCC43C)C2CC1(C)C` (centres unmarked) [Compound D24], the Cytotoxicity activity result is given as “moderate”. Regarding `CCCCCC(=O)OCC12C(O)CC3(C)C(=CCC4C5(C)CCC(O)C(C)(CO)C5CCC43C)C1CC(C)(C)C(OC(=O)CCCCC)C2O` (centres unmarked) [Compound D25], the Cytotoxicity activity result was “moderate”. Turning to `CCCCCC(=O)OCC12C(O)CC3(C)C(=CCC4C5(C)CCC(O)C(C)(CO)C5CCC43C)C1CC(C)(C)C(O)C2OC(=O)CCCCC` (centres unmarked) [Compound D26], the Cytotoxicity activity result was “moderate”. The result for `CCCCCC(=O)OCC12C(O)CC3(C)C(=CCC4C5(C)CCC(OC(=O)CCCCC)C(C)(CO)C5CCC43C)C1CC(C)(C)C(O)C2O` (centres unmarked) [Compound D27] reads “moderate”.

With `CCCCCC(=O)OCC12C(OC(=O)CCCCC)CC3(C)C(=CCC4C5(C)CCC(O)C(C)(CO)C5CCC43C)C1CC(C)(C)C(O)C2O` (centres unmarked) [Compound D28], the Cytotoxicity activity entry was “moderate”. As for `CCCCCC(=O)OCC1(C)C(O)CCC2(C)C1CCC1(C)C2CC=C2C3CC(C)(C)C(OC(=O)CCCCC)C(O)C3(CO)C(O)CC21C` (centres unmarked) [Compound D29], the entry is “moderate”; as for `CCCCCC(=O)OCC1(C)C(O)CCC2(C)C1CCC1(C)C2CC=C2C3CC(C)(C)C(O)C(OC(=O)CCCCC)C3(CO)C(O)CC21C` (centres unmarked) [Compound D30], “moderate”.

For the molecule `CCCCCC(=O)OCC1(C)C(OC(=O)CCCCC)CCC2(C)C1CCC1(C)C2CC=C2C3CC(C)(C)C(O)C(O)C3(CO)C(O)CC21C` (centres unmarked) [Compound D31], the Cytotoxicity activity entry is recorded as “moderate”. Regarding `CCCCCC(=O)OCC1(C)C(O)CCC2(C)C1CCC1(C)C2CC=C2C3CC(C)(C)C(O)C(O)C3(CO)C(OC(=O)CCCCC)CC21C` (centres unmarked) [Compound D32], the Cytotoxicity activity result is given as “moderate”. On to `CCC(CC)C(=O)OCC1(C)C(O)CCC2(C)C1CCC1(C)C2CC=C2C3CC(C)(C)C(O)C(O)C3(CO)C(O)CC21C` (centres unmarked) [Compound E1], for which the Cytotoxicity activity result is listed as “moderate”. The result for `CCC(CC)C(=O)OCC12C(O)CC3(C)C(=CCC4C5(C)CCC(O)C(C)(CO)C5CCC43C)C1CC(C)(C)C(O)C2O` (centres unmarked) [Compound E2] reads “moderate”; that for `CCC(CC)C(=O)OCC1(C)C(O)CCC2(C)C1CCC1(C)C2CC=C2C3CC(C)(C)C(O)C(O)C3(COC(=O)C(CC)CC)C(O)CC21C` (centres unmarked) [Compound E3], “strong”. For the molecule `CCC(CC)C(=O)OCC1(C)C(O)CCC2(C)C1CCC1(C)C2CC=C2C3CC(C)(C)C(OC(=O)C(CC)CC)C(O)C3(COC(=O)C(CC)CC)C(O)CC21C` (centres unmarked) [Compound E4], the Cytotoxicity activity entry is on record as “moderate”.
